Experimental findings from patent US6352992B1, “Endothelin antagonist and beta receptor blocking agent as combined preparations” (Abbott Laboratories, priority 1997, dated 2002) are described below.

In the test the test system is normotensive awake dogs. As to the kind of experiment: Mean arterial blood pressure in normotensive awake dogs after oral administration. Type of test: in vivo, beagle dogs. Particulars: Compound A 10 mg/kg, bucindolol 0.1 mg/kg; for mean arterial blood pressure, change with respect to the initial value: combination 10 + 0.1 mg/kg, mean values. How it is done:
In a crossover design, the test substance was administered orally as a capsule to chronically instrumented male beagle dogs (approx 14 kg). The capsule either contained nothing (control N=5), compound A (10 mg/kg, N=10), bucindolol (0.1 mg/kg; N=5) or the combination bucindolol + compound A (0.1+10 mg/kg; N=5). In between the individual administrations, a washing phase of at least one week was observed. The systolic and the diastolic blood pressure were measured using a Statham Transducer P 23 Db, from which the mean arterial blood pressure was calculated. The blood pressure was recorded for 6 h (MI^2, Modular Instrumente, USA).
Development of the mean arterial blood pressure (mmHg, change with respect to the initial value) in normotensive awake dogs after oral administration of different substances, what is shown are the mean values

Regarding `CC(C)(Cc1c[nH]c2ccccc12)NCC(O)COc1ccccc1C#N` (stereo not shown) [Bucindolol, bucindolol], the “mean arterial blood pressure, change with respect to the initial value” (shortened to “mean arterial blood pressure, change”) (1h after oral capsule) is −0.8 mmHg; the “mean arterial blood pressure, change” value (2h after oral capsule) is given as −3.8 mmHg; the “mean arterial blood pressure, change” value (3h after oral capsule) was −3.4 mmHg; the “mean arterial blood pressure, change” value (4h after oral capsule) is −3.8 mmHg; the “mean arterial blood pressure, change” value (5h after oral capsule) is recorded as −3.8 mmHg; the “mean arterial blood pressure, change” value (6h after oral capsule) was −1.4 mmHg. The “effect on blood pressure, in words” value (oral capsule, recorded for 6 h, combination 0.1+10 mg/kg) is reported as “does not decrease”.
